# From US8729134B2, “Aryl di-substituted propenone compounds” (Heartlink Limited, priority 2008, dated 2014)
# Entries after “also recorded” stand apart in the source; their conditions may differ. Read-outs that look alike come from different tables or passages of the source.
# Columns and labels:
# [1] = tested on: MCF-7 cells (human, mammary, adenocarcinoma cell line); experiment: MTT cell viability assay, MCF-7 cells; type: cell-based; details: MCF7, 48 hours incubation, read-out: IC50, inhibition of MCF7 cells
# Procedure: (§1) Compounds II-IV were compared with genistein to test the cell viability of MCF-7 cells (human, mammary, adenocarcinoma cell line) and MDA-MB-435 cells (human mammary ductal carcinoma).
# (§2) Cell viability was tested using the MTT assay (Amersham). The MTT [3-(4,5-dimethylthiazol-2-yl)-2,5-diphenyltetrazolium bromide] assay, was first described by Mosmann in 1983, (J Immunol Methods. 1983 Dec. 16; 65(1-2):55-63). The assay is based on the ability of a mitochondrial dehydrogenase enzyme from viable cells to cleave the tetrazolium rings of the pale yellow MTT and form a dark blue formazan crystals which is largely impermeable to cell membranes, thus resulting in accumulation within healthy cells. Solubilisation of the cells by the addition of a detergent results in the liberation of the crystals which are then solubilized. The number of surviving cells is directly proportional to the level of the formazan product created. The colour can then be quantified using a simple colorimetric assay. The results can be read on a multi-well scanning spectrophotometer (ELISA reader).
# (§3) Cells were plated at predetermined densities in 96 well plates. These were then incubated for 24 hours at 37° C. with 5%; CO2. Growth medium was then removed and replaced with 100 μl of growth medium containing various dilutions of test reagents or appropriate controls.
# (§4) Plates were then incubated for a either 48 or 96 hours.
# (§5) MTT reagent was then added to each well. The plates were then incubated in a 37° C./5% CO2 incubator. Detergent reagent was then added to each well. The plates were incubated overnight at 37° C./5% CO2. The absorbance was read at 570 nm.
# [2] = tested on: JAM (ovarian carcinoma) cells; experiment: MTT cell viability assay, JAM cells; type: cell-based; details: for IC50: Ovarian carcinoma cell, 96 hours incubation, read-out: IC 50, inhibition of JAM cells
# Procedure: as §2, §3, §4, §5
# Compound IV was compared with genistein to test the cell viability of JAM (ovarian carcinoma) and HELA (human cervical carcinoma) cell lines.
# [3] = tested on: AB1 cells (murine myeloma); experiment: MTT cell viability assay, AB1 cells; type: cell-based; details: Mus musculus, 96 hours incubation, read-out: IC 50, inhibition of AB1 cells
# Procedure: as §2, §3, §4
# (§6) MTT reagent was then added to each well. The plates were then incubated in a 37° C./5% CO2 incubator. Detergent reagent was then added to each well. […] The absorbance was read at 570 nm. […]
# [4] = tested on: MDA-MB-435 cells (human mammary ductal carcinoma); experiment: MTT cell viability assay, MDA-MB-435 cells; type: cell-based; details: 48 hours incubation, read-out: IC50, inhibition of MDA-MB-435 cell line
# Procedure: as §1, §2, §3, §4, §5
# [5] = tested on: DU-145 cells (human prostate carcinoma); experiment: MTT cell viability assay, DU-145 cells; type: cell-based; details: 48 hours incubation
# Procedure: as §2, §3, §4, §5
# (§7) Compounds II-IV were compared with genistein to test the cell viability of LNCaP, PC3 and DU-145 cell lines (human prostate carcinoma).
# [6] = tested on: SK-OV-3 (ovarian adenocarcinoma) cells; experiment: MTT cell viability assay, SK-OV-3 cells; type: cell-based; details: Homo sapiens, read-out: IC 50, inhibition in SK-OV-3 cells
# Procedure: as §2, §3, §4, §5
# (§8) Also, Compounds II-IV were compared with genistein to test the cell viability of SK-OV-3 (ovarian adenocarcinoma), OVCAR-3 (ovarian adenocarcinoma), and C-33A (cervical carcinoma) cell lines.
# [7] = tested on: C-33A (cervical carcinoma) cells; experiment: MTT cell viability assay, C-33A cells; type: cell-based; details: Homo sapiens, 48 hours incubation, read-out: IC 50, inhibition of C-33A cells
# Procedure: as §2, §3, §4, §5, §8
# [8] = tested on: OVCAR-3 (ovarian adenocarcinoma) cells; experiment: MTT cell viability assay, OVCAR-3 cells; type: cell-based; details: Homo sapiens, read-out: IC 50, inhibition in OVCAR-3 cells
# Procedure: as §2, §3, §4, §5, §8
# [9] = tested on: B16-F1 cells (murine melanoma); experiment: MTT cell viability assay, B16-F1 cells; type: cell-based; details: Mus musculus, 96 hours incubation, read-out: IC 50, inhibition of B16-F1 cells
# Procedure: as §2, §3, §4, §6
# [10] = tested on: PC3 cells (human prostate carcinoma); experiment: MTT cell viability assay, PC3 cells; type: cell-based; details: PC-3, read-out: IC 50, inhibition in PC3 cells
# Procedure: as §2, §3, §4, §5, §7
# [11] = tested on: SK-MEL-28 (human malignant melanoma) cell line; experiment: MTT cell viability assay, SK-MEL-28 cells; type: cell-based; details: read-out: IC 50, inhibition in SK-MEL-28 cells
# Procedure: as §2, §3, §4, §5
# Compounds II, III and IV were compared with genistein to test the cell viability of SK-MEL-28 (human malignant melanoma) cell line.
# [12] = tested on: LNCaP cells (human prostate carcinoma); experiment: MTT cell viability assay, LNCaP cells; type: cell-based; details: 48 hours incubation
# Procedure: as §2, §3, §4, §5, §7
# [13] = Tolerability in the xenograft mouse model; type: in vivo; details: doses of 50, 25 and 10 mg/kg intraperitoneally for 14 days
# Procedure: (§9) Female athymic mice (54) were implanted subcutaneously in the right hind flank with human DU145 prostate tumour cells (5×10^6). Tumour formation and growth were monitored until the tumours reached an average 25 mm^2 area (5 mm×5 mm). Mice were randomised into groups based upon tumour area (mean tumour area in individual groups ranged from 22 mm^2-33 mm^2). Compositions of Compounds II and III were prepared in a solution of 5% DMSO, 10% Tween 80 in PBS and administered intraperitoneally in a volume of 100 μl at doses of 50, 25, and 10 mg/kg to individual eight week old female Balb/c mice for 14 days. Vehicle control was 5% DMSO, 10% Tween 80 in PBS.
# [14] = tested on: HELA (human cervical carcinoma) cells; experiment: MTT cell viability assay, HELA cells; type: cell-based; details: 96 hour incubation, read-out: IC 50, inhibition of HELA cells
# Procedure: as §2, §3, §4, §6
# [15] = tested on: human DU145 prostate tumour cells (xenograft); experiment: Anti-tumour efficacy in DU145 xenograft mouse model; type: in vivo, mice
# Procedure: The cell lines were cultured and prepared for inoculation according to standard protocols.
# as §9
# [16] = read-out: IC 50, inhibition of LNCaP cells
# [17] = read-out: IC 50, inhibition of DU-145 cells
SMILES,IC50 [1],IC50 [3],IC50 [4],IC50 [6],IC50 [7],IC50 [8],IC50 [9],IC50 [10],IC50 [11],"IC50 [12, 16]",tolerability / toxicity in the animals [13],"IC50 [5, 17]",IC50 [2],also measured
"C=C(C(=O)c1ccc(OC)cc1OC)c1ccc(OC)c(OC)c1 [Compound IV, 1-(2,4-dimethoxyphenyl)-2-(3,4-dimethoxyphenyl)prop-2-en-1-one]",6.8 µM,1.1 µg/mL,6.8 µM,27.4 µM,2.4 µM,16.9 µM,1.6 µg/mL,8.7 µM,3.5 µM,6.1 µM,–,–,–,"cytotoxic potency compared with genistein ([2]; JAM and HELA cell lines): more potent as a cytotoxic agent than genistein; IC50 ([5]; read-out: IC 50, inhibition of DU-145 cells (unit inferred)): 10.7 µM"
"C=C(C(=O)c1cc(OC)c(OC)cc1OC)c1ccc(OC)c(OC)c1 [Compound III, 1-(2,4,5-trimethoxyphenyl)-2-(3,4-dimethoxyphenyl)prop-2-en-1-one]",3 µM,–,3.8 µM,33.1 µM,3.1 µM,11.7 µM,–,8.6 µM,5.5 µM,5 µM,neither compound resulted in unacceptable toxicity,15 µM,–,–
"COc1ccc(C(=O)Cc2ccc(OC)c(OC)c2)c(OC)c1 [Compound V, 1-(2,4-dimethoxyphenyl)-2-(3,4-dimethoxyphenyl)ethanone]",–,–,–,–,–,–,–,–,–,–,–,–,0.9 µg/mL,IC50 [14]: 3 µg/mL
"C=C(C(=O)c1ccc(OC)c(OC)c1OC)c1ccc(OC)cc1 [Compound II, 1-(2,3,4-trimethoxyphenyl)-2-(4-methoxyphenyl)prop-2-en-1-one]",2.2 µM,–,0.6 µM,21.5 µM,1.8 µM,3.3 µM,–,2.7 µM,3.5 µM,2.3 µM,better tolerated by the animals than Compound III; also recorded: neither compound resulted in unacceptable toxicity,4.8 µM,–,"reduction mean tumour growth relative to the control group ([15]; 10 mg/kg intraperitoneally for 14 days, at the completion of treatment): 42%; statistical significance of tumour growth inhibition ([15]; 25 mg/kg and 10 mg/kg treatment groups, t-test P<0.05): statistically significant; tumour growth relative to control animals treated with vehicle alone (in words) ([15]; 50, 25, 10 mg/kg intraperitoneally, 14 days): caused delay in the growth of DU-145 tumours; also recorded: clearly inhibited tumour growth; anti-tumour effect, comparison between Compounds II and III ([15]; DU145 xenograft, 50, 25, 10 mg/kg): has the most anti-tumour effect; also recorded: superior anti-tumour effect in comparison with Compound III; tumour size following the cessation of treatment ([15]; after the 14 day treatment, entire study period): tumours remained smaller"
"O=c1c(-c2ccc(O)cc2)coc2cc(O)cc(O)c12 [genistein, reference compound]",79.4 µM,1.1 µg/mL,> 100 µM,–,41.9 µM,–,4.5 µg/mL,–,–,–,–,78.9 µM,9.7 µg/mL,"IC50 ([12]; genistein, read-out: IC, inhibition of LNCaP cells): 59.5 µM"
